Experiments:
Type in all cases: in vivo
[1] = tested on: barnyardgrass (Echinochloa crus-galli (L.) P. Beauv. var. crus-galli); assay: Test Example 2: herbicidal effect by soil application to upland field; settings: soil surface spray, upland field soil, 1,000 g active ingredient per hectare, 21st day after application
How it was run: (§1)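 Seeds were sown in field soil, covered, and the soil surface sprayed with a water-diluted wettable powder at 1,000 g active ingredient per hectare in 1,000 L/ha. Plants grew in a greenhouse, and herbicidal effect was rated against a standard scale 21 days after application.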

[2] = tested on: slender amaranth (Amaranthus viridis L.); assay: as above; settings: soil surface spray, upland field soil, 1,000 g active ingredient per hectare, 21st day after application
How it was run: as §1

[3] = tested on: velvetleaf (Abutilon theophrasti medicus); assay: as above; settings: soil surface spray, upland field soil, 1,000 g active ingredient per hectare, 21st day after application
How it was run: as §1

[4] = tested on: green foxtail (Setaria viridis (L.) P. Beauv.); assay: as above; settings: soil surface spray, upland field soil, 1,000 g active ingredient per hectare, 21st day after application
How it was run: as §1

[5] = tested on: Japanese bulrush (Scirpus juncoides Roxb.); assay: Test Example 1: herbicidal effect by soil application to paddy field; settings: for herbicidal effect (index), Scirpus juncoides Roxb.: soil application to paddy field, rated by standard of Table 34; for herbicidal effect, Scirpus juncoides Roxb.: paddy field soil application, active ingredient 1,000 g per 1 hectare, wettable powder added dropwise to water surface the day after sowing, examined on the 21st day after application
How it was run: (§2)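 Plants were sown in flooded (3 cm) paddy soil and evaluated for herbicidal effect 21 days after soil application in a greenhouse.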

[6] = tested on: heartshape false pickerelweed (Monochoria vaginalis (Burm.f.) C.Presl); assay: as above; settings: for herbicidal effect (index), Monochoria vaginalis (Burm.f.) C.Presl: soil application to paddy field, rated by standard of Table 34; for herbicidal effect, Monochoria vaginalis (Burm. f.) C. Presl: paddy field soil application, active ingredient 1,000 g per 1 hectare, wettable powder added dropwise to water surface the day after sowing, examined on the 21st day after application
How it was run: as §2

[7] = tested on: early watergrass (Echinochloa oryzicola Vasing); assay: as above; settings: for herbicidal effect (index), Echinochloa oryzicola Vasing: soil application to paddy field, rated by standard of Table 34; for herbicidal effect, Echinochloa oryzicola Vasing: paddy field soil application, active ingredient 1,000 g per 1 hectare, wettable powder added dropwise to water surface the day after sowing, examined on the 21st day after application
How it was run: as §2

[8] = tested on: barnyardgrass (Echinochloa crus-galli (L.) P. Beauv. var. crus-galli); assay: Test Example 3: herbicidal effect by application to upland field (foliage treatment); settings: 14th day after application; for herbicidal effect, Barnyardgrass: foliage treatment, 1,000 g active ingredient per 1 hectare, greenhouse; for herbicidal effect (index), Barnyardgrass: foliage treatment, plants grown two weeks, 1,000 g active ingredient per hectare
How it was run: (§3)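 Greenhouse-grown plants, two weeks old in field soil, were treated by spraying their foliage with a water dilution of wettable powder. Rate: 1,000 g active ingredient in a 1,000 L/ha equivalent volume. Assessment followed at 14 days.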

[9] = tested on: slender amaranth (Amaranthus viridis L.); assay: as above; settings: 14th day after application; for herbicidal effect, Slender Amaranth: foliage treatment, 1,000 g active ingredient per 1 hectare, greenhouse; for herbicidal effect (index), Slender Amaranth: foliage treatment, plants grown two weeks, 1,000 g active ingredient per hectare
How it was run: as §3

[10] = tested on: velvetleaf (Abutilon theophrasti medicus); assay: as above; settings: 14th day after application; for herbicidal effect, Velvetleaf: foliage treatment, 1,000 g active ingredient per 1 hectare, greenhouse; for herbicidal effect (index), Velvetleaf: foliage treatment, plants grown two weeks, 1,000 g active ingredient per hectare
How it was run: as §3

[11] = tested on: green foxtail (Setaria viridis (L.) P. Beauv.); assay: as above; settings: 14th day after application; for herbicidal effect, Green Foxtail: foliage treatment, 1,000 g active ingredient per 1 hectare, greenhouse; for herbicidal effect (index), Green Foxtail: foliage treatment, plants grown two weeks, 1,000 g active ingredient per hectare
How it was run: as §3

| SMILES | herbicidal effect (index), Barnyardgrass [1] | herbicidal effect (index), Slender Amaranth [2] | herbicidal effect (index), Velvetleaf [3] | herbicidal effect (index), Green Foxtail [4] | herbicidal effect (index), Scirpus juncoides Roxb. [5] | herbicidal effect (index), Monochoria vaginalis (Burm.f.) C.Presl [6] | herbicidal effect (index), Echinochloa oryzicola Vasing [7] | herbicidal effect, Barnyardgrass [8] | herbicidal effect, Slender Amaranth [9] | herbicidal effect, Velvetleaf [10] | herbicidal effect, Green Foxtail [11] | herbicidal effect, Scirpus juncoides Roxb. [5] | herbicidal effect, Monochoria vaginalis (Burm. f.) C. Presl [6] | herbicidal effect, Echinochloa oryzicola Vasing [7] | herbicidal effect (index), Barnyardgrass [8] | herbicidal effect (index), Slender Amaranth [9] | herbicidal effect (index), Velvetleaf [10] | herbicidal effect (index), Green Foxtail [11] |
| --- | --- | --- | --- | --- | --- | --- | --- | --- | --- | --- | --- | --- | --- | --- | --- | --- | --- | --- |
| O=C1CCCC(O)=C1C(=O)c1cnccn1 [Comparative Compound 1, reference compound] | 1 (10 to less than 30% of herbicidal effect and crop phytotoxicity) | 0 (0 to less than 10% of herbicidal effect and crop phytotoxicity) | 1 (10 to less than 30% of herbicidal effect and crop phytotoxicity) | 1 (10 to less than 30% of herbicidal effect and crop phytotoxicity) | 0 (0 to less than 10% of herbicidal effect and crop phytotoxicity) | 0 (0 to less than 10% of herbicidal effect and crop phytotoxicity) | 1 (10 to less than 30% of herbicidal effect and crop phytotoxicity) | 0 (0 to less than 10% of herbicidal effect and crop phytotoxicity) | 1 (10 to less than 30% of herbicidal effect and crop phytotoxicity) | 2 (30 to less than 50% of herbicidal effect and crop phytotoxicity) | 0 (0 to less than 10% of herbicidal effect and crop phytotoxicity) |  |  |  |  |  |  |  |
| O=C1CCCC(O)=C1C(=O)c1ccc2ccccc2n1 [Comparative Compound 2, reference compound] | 3 (50 to less than 70% of herbicidal effect and crop phytotoxicity) | 2 (30 to less than 50% of herbicidal effect and crop phytotoxicity) | 2 (30 to less than 50% of herbicidal effect and crop phytotoxicity) | 0 (0 to less than 10% of herbicidal effect and crop phytotoxicity) | 0 (0 to less than 10% of herbicidal effect and crop phytotoxicity) | 0 (0 to less than 10% of herbicidal effect and crop phytotoxicity) | 0 (0 to less than 10% of herbicidal effect and crop phytotoxicity) | 0 (0 to less than 10% of herbicidal effect and crop phytotoxicity) | 1 (10 to less than 30% of herbicidal effect and crop phytotoxicity) | 5 (90% or more of herbicidal effect and crop phytotoxicity) | 0 (0 to less than 10% of herbicidal effect and crop phytotoxicity) |  |  |  |  |  |  |  |
| Cn1c(C(F)(F)F)ccc(C(=O)C2=C(O)CCCC2=O)c1=O [I-1, 2-[1,2-dihydro-1-methyl-2-oxo-6-(trifluoromethyl)-pyridine-3-carbonyl]-3-hydroxy-2-cyclohexen-1-one] | 5 (90% or more of herbicidal effect and crop phytotoxicity) | 5 (90% or more of herbicidal effect and crop phytotoxicity) | 5 (90% or more of herbicidal effect and crop phytotoxicity) | 4 (70 to less than 90% of herbicidal effect and crop phytotoxicity) |  |  |  |  |  |  |  | 5 (90% or more of herbicidal effect and crop phytotoxicity) | 5 (90% or more of herbicidal effect and crop phytotoxicity) | 5 (90% or more of herbicidal effect and crop phytotoxicity) | 4 (70 to less than 90% of herbicidal effect and crop phytotoxicity) | 5 (90% or more of herbicidal effect and crop phytotoxicity) | 5 (90% or more of herbicidal effect and crop phytotoxicity) | 3 (50 to less than 70% of herbicidal effect and crop phytotoxicity) |
| CCCn1c(C(F)(F)F)ccc(C(=O)C2=C(O)CCCC2=O)c1=O [I-3] | 5 (90% or more of herbicidal effect and crop phytotoxicity) | 5 (90% or more of herbicidal effect and crop phytotoxicity) | 5 (90% or more of herbicidal effect and crop phytotoxicity) | 5 (90% or more of herbicidal effect and crop phytotoxicity) |  |  |  |  |  |  |  | 5 (90% or more of herbicidal effect and crop phytotoxicity) | 5 (90% or more of herbicidal effect and crop phytotoxicity) | 5 (90% or more of herbicidal effect and crop phytotoxicity) | 5 (90% or more of herbicidal effect and crop phytotoxicity) | 5 (90% or more of herbicidal effect and crop phytotoxicity) | 5 (90% or more of herbicidal effect and crop phytotoxicity) | 5 (90% or more of herbicidal effect and crop phytotoxicity) |
| CC(C)n1c(C(F)(F)F)ccc(C(=O)C2=C(O)CCCC2=O)c1=O [I-4] | 5 (90% or more of herbicidal effect and crop phytotoxicity) | 5 (90% or more of herbicidal effect and crop phytotoxicity) | 5 (90% or more of herbicidal effect and crop phytotoxicity) | 4 (70 to less than 90% of herbicidal effect and crop phytotoxicity) |  |  |  |  |  |  |  | 5 (90% or more of herbicidal effect and crop phytotoxicity) | 5 (90% or more of herbicidal effect and crop phytotoxicity) | 5 (90% or more of herbicidal effect and crop phytotoxicity) | 5 (90% or more of herbicidal effect and crop phytotoxicity) | 5 (90% or more of herbicidal effect and crop phytotoxicity) | 5 (90% or more of herbicidal effect and crop phytotoxicity) | 3 (50 to less than 70% of herbicidal effect and crop phytotoxicity) |
| CCCCn1c(C(F)(F)F)ccc(C(=O)C2=C(O)CCCC2=O)c1=O [I-5] | 5 (90% or more of herbicidal effect and crop phytotoxicity) | 5 (90% or more of herbicidal effect and crop phytotoxicity) | 5 (90% or more of herbicidal effect and crop phytotoxicity) | 5 (90% or more of herbicidal effect and crop phytotoxicity) |  |  |  |  |  |  |  | 5 (90% or more of herbicidal effect and crop phytotoxicity) | 5 (90% or more of herbicidal effect and crop phytotoxicity) | 5 (90% or more of herbicidal effect and crop phytotoxicity) | 5 (90% or more of herbicidal effect and crop phytotoxicity) | 5 (90% or more of herbicidal effect and crop phytotoxicity) | 5 (90% or more of herbicidal effect and crop phytotoxicity) | 5 (90% or more of herbicidal effect and crop phytotoxicity) |
| C=CCn1c(C(F)(F)F)ccc(C(=O)C2=C(O)C(C)(C)C(=O)C(C)(C)C2=O)c1=O [II-42] | 5 (90% or more of herbicidal effect and crop phytotoxicity) | 5 (90% or more of herbicidal effect and crop phytotoxicity) | 5 (90% or more of herbicidal effect and crop phytotoxicity) | 3 (50 to less than 70% of herbicidal effect and crop phytotoxicity) |  |  |  | 5 (90% or more of herbicidal effect and crop phytotoxicity) | 5 (90% or more of herbicidal effect and crop phytotoxicity) | 5 (90% or more of herbicidal effect and crop phytotoxicity) | 3 (50 to less than 70% of herbicidal effect and crop phytotoxicity) |  |  |  |  |  |  |  |
| CS(=O)(=O)CCn1c(C(F)(F)F)ccc(C(=O)C2=C(O)C3CCC(C3)C2=O)c1=O (stereo not shown) [III-30] | 5 (90% or more of herbicidal effect and crop phytotoxicity) | 5 (90% or more of herbicidal effect and crop phytotoxicity) | 5 (90% or more of herbicidal effect and crop phytotoxicity) | 5 (90% or more of herbicidal effect and crop phytotoxicity) |  |  |  | 5 (90% or more of herbicidal effect and crop phytotoxicity) | 5 (90% or more of herbicidal effect and crop phytotoxicity) | 5 (90% or more of herbicidal effect and crop phytotoxicity) | 5 (90% or more of herbicidal effect and crop phytotoxicity) |  |  |  |  |  |  |  |

Reference: patent US8076487B2, “Pyridone derivative and herbicide” (Kumiai Chemical Industry Co., Ltd., priority 2006, dated 2011)
